In data set [1] the test system is H2228 EML4-ALK cancer cell line. In words: Antiproliferative activity, MTT assay, H2228 monolayer. Type of data set: cell-based, human. The conditions noted are these: read-out: H2228 IC50 EML4-ALK. (In general: Tetrazolium assays rely on reduction of a dye to a coloured formazan, in cell work by metabolically active cells.)
Data set [2] relates to BaF3/NMP-ALK cancer cell line. As to the kind of experiment: Antiproliferative activity, CCK-8 assay, BaF3/ALK cells. The conditions noted are these: read-out: BaF3/NMP-ALK IC50. Type of data set: cell-based, mouse.
In the next data set the test system is HK-2 cells. As to the kind of experiment: Toxicity assay on human normal cells, HK-2. Type of data set: cell-based.
The test system of a further data set is H2228 xenograft. As to the kind of experiment: In vivo anti-tumor evaluation, H2228 xenograft in nude mice. The conditions noted are these: 20 mg kg^-1, oral, 14 days.
For the next data set, the system named is L02 cells. As to the kind of experiment: Toxicity assay on human normal cells, L02. Type of data set: cell-based. The conditions noted are these: L02, read-out: IC50 L02.
In another data set the test system is EA.hy926 cells. In words: Toxicity assay on human normal cells, EA.hy926. Type of data set: cell-based. The following applies: for IC50: Homo sapiens.
Setting [3] is: MTT, 48 h, mean ± SD, at least three experiments.
Setting [4] is: CCK-8, 48 h, at least three experiments.

Results on nine compounds are retold here after article PMC11140455 (RSC Advances, 2024).

Values joined by “and” are separate entries in the source; they are usually repeats but may differ in a detail not shown here. Equal entries are not always repeated. Where two headings read alike, the source gives them in different places.

Turning to “4-Chloro-N2-(2-ethoxy-5-methyl-4-(1-methylpiperidin-4-yl)phenyl)-N5-(2-(ethylsulfinyl)-4-fluorophenyl)pyrimidine-2,5-diamine [Compound 18g]”, the figures for the IC50 in data set [1] (setting [3]) and in data set [2] (setting [4]) were 33 ± 7 nM and 29 ± 12 nM, respectively.

For the compound “4-Chloro-N5-(2-(ethylsulfinyl)-4-fluorophenyl)-N2-(2-methoxy-5-methyl-4-(1-methylpiperidin-4-yl)phenyl)pyrimidine-2,5-diamine [Compound 18f]”, the values for the IC50 in data set [1] (setting [3]) and in data set [2] (setting [4]) were 37 ± 11 nM and 31 ± 13 nM, respectively.

Regarding “4-Chloro-N5-(4-chloro-2-(ethylsulfinyl)phenyl)-N2-(2-isopropoxy-5-methyl-4-(1-methylpiperidin-4-yl)phenyl)pyrimidine-2,5-diamine [Compound 18i]”, the IC50 in data set [1] (setting [3]) was 81 ± 28 nM; in data set [2] (setting [4]) it was 77 ± 15 nM.

In the case of “4-Chloro-N5-(2-(ethylsulfinyl)-4-fluorophenyl)-N2-(2-methoxy-5-methyl-4-(piperidin-4-yl)phenyl)pyrimidine-2,5-diamine [Compound 18h]”, the IC50 in data set [1] (setting [3]) came out at 58 ± 16 nM; in data set [2] (setting [4]), 47 ± 15 nM.

“4-Chloro-N5-(2-(ethylsulfinyl)phenyl)-N2-(2-methoxy-5-methyl-4-(1-methylpiperidin-4-yl)phenyl)pyrimidine-2,5-diamine [Compound 18e]”: the IC50 was found to be 44 ± 12 nM in data set [1] (setting [3]) and 33 ± 10 nM in data set [2] (setting [4]).

“4-Chloro-N5-(2-(ethylsulfinyl)-4-fluorophenyl)-N2-(2-isopropoxy-5-methyl-4-(1-methylpiperidin-4-yl)phenyl)pyrimidine-2,5-diamine [Compound 18L]”: the IC50 in data set [1] (setting [3]) came out at 31 ± 10 nM; in data set [2] (setting [4]), 28 ± 8 nM.

In the case of “4-Chloro-N5-(2-(ethylsulfinyl)-4-fluorophenyl)-N2-(2-isopropoxy-5-methyl-4-(piperidin-4-yl)phenyl)pyrimidine-2,5-diamine [Compound 18j]”, the values for the IC50 in data set [1] (setting [3]) and in data set [2] (setting [4]) were 63 ± 8 nM and 56 ± 4 nM, respectively.

With “4-Chloro-N5-(2-(ethylsulfinyl)phenyl)-N2-(2-methoxy-4-(1-methylpiperidin-4-yl)phenyl)pyrimidine-2,5-diamine [Compound 18k]”, the IC50 was 57 ± 6 nM in data set [1] (setting [3]) and 24 ± 5 nM in data set [2] (setting [4]).

As for `Cc1cc(Nc2ncc(Cl)c(Nc3ccccc3S(=O)(=O)C(C)C)n2)c(OC(C)C)cc1C1CCNCC1` [Ceritinib, ceritinib], in the data set on HK-2 cells (48 h, 1 μM (Fig. 9)), the HK-2 cell morphology result is recorded as “abnormal morphology changes”. In addition, the IC50 is 1440 ± 250 nM in the data set on HK-2 cells (Homo sapiens, HK-2, read-out: IC50 HK-2); 25 ± 10 nM in data set [1] (Homo sapiens, NCI-H2228, 48 h); 18 ± 1 nM in data set [2] (Mus musculus, BaF3, 48 h); 3420 ± 560 nM in the data set with L02 cells; 3420 ± 560 nM in the data set on EA.hy926 cells (EA.hy 926, read-out: IC50 EA.hy926 (active)); 2440 ± 340 nM in the data set with EA.hy926 cells (EA.hy 926, read-out: IC50 EA.hy926 (quiescent)). Moreover, in the data set on H2228 xenograft, the “Tumor growth inhibitory rate (TGI)” value was 72.8% and 72.0%. In the data set on H2228 xenograft, the “Tumor volume changes (inhibitory effects)” value was found to be 131.00 mm^3. Besides, the EA.hy926 cell morphology result in the data set on EA.hy926 cells (48 h, 1 μM (Fig. 9)) is listed as “abnormal morphology changes”.
